This is an account of results in patent US20160367685A1, “DUPA-INDENOISOQUINOLINE CONJUGATES” (PURDUE RESEARCH FOUNDATION, priority 2013, published 2016).

Entries after “also recorded” stand apart in the source; their conditions may differ. Where two headings read alike, the source gives them in different places.

The target in one data set is T1, Top1 (Homo sapiens, UniProt P11387).
T1 sequence (P11387 1-765): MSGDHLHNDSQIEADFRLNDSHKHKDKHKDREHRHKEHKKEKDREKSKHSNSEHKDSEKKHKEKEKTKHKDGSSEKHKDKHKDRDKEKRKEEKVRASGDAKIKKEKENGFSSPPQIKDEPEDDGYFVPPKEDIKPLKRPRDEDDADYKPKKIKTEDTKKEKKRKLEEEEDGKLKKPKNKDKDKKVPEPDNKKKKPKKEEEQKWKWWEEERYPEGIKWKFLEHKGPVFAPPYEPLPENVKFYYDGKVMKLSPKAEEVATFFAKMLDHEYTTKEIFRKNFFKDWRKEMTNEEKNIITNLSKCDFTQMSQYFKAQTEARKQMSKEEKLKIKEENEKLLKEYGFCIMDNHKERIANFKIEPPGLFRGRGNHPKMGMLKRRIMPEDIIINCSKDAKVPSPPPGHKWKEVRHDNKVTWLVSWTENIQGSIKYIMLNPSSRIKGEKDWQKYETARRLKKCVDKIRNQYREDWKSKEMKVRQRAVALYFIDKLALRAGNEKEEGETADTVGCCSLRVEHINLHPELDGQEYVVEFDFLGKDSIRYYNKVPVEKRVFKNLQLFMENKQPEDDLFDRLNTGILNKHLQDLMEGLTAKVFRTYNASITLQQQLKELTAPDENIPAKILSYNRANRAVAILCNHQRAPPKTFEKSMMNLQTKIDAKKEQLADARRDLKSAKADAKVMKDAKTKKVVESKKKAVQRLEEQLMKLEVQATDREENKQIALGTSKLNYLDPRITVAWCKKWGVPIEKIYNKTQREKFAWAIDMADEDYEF
In words: Top1-mediated DNA cleavage assay. To be noted: graded relative to 1 μM camptothecin. Format: biochemical. Details: key: 0: no inhibitory activity; +: between 20% and 50% activity; ++: between 50% and 75% activity; +++: between 75% and 95% activity; ++++: equipotent; +++++: more potent.

Data set [1] deals with NCI panel of 60 human cancer cell lines. The experiment in a line: Cytotoxicity mean-graph midpoint in NCI panel of 60 cancer cell lines. Format: cell-based. The note with it: for MGM (μM), cytotoxicity mean-graph midpoint: approximate average of GI50 across the panel.
Another data set relates to LNCap cell cultures. The experiment in a line: Cytotoxicity in LNCap cell cultures. Format: cell-based. The note with it: LNCap cell cultures (FIG. 3). The text has this: The excellent cytotoxicities of the DUPA conjugates served as an indication that the disulfide reduction and conversion of the intermediates to the base drugs (6 and 18) are occurring intracellularly. Although an increase in potency has not been observed yet, this encouraging result partially supported our initial hypothesis, and urged further optimization of the peptide linker to facilitate the drug releasing mechanism.

The next data set deals with 22RV1 tumors. In words: 22RV1 xenograft-bearing mice therapy study. To be noted: for tumor growth during the treatment period: alternate days; for tumor growth during the treatment period / toxicity to the animals: 3 days/week for 3 weeks; for toxicity to the animals / body weight during the treatment period: 40 nmol/mouse IP; for body weight during the treatment period: live mice, 3 days/week for 3 weeks (FIG. 6).

For the next data set, the system named is 22RV1 cells. In words: cells. It is filed as cell-based, human. How it is done: 22RV1 cells were seeded in 24-well (50000 cells/well) Falcon plates and allowed to form monolayers over a period of 24-48 h. The old medium was replaced with fresh medium (0.5 mL) containing increasing concentrations of drug (either targeted or non-targeted) and cells were incubated for an additional 2 h and 24 h (in the case of targeted drug) at 37° C. Cells were washed (3×0.5 mL) with fresh medium and incubated in fresh medium (0.5 mL) for another 66 h at 37° C. The spent medium in each well was replaced with fresh medium (0.5 mL) containing [^3H]-thymidine (1 mCi/mL), and the cells were incubated for additional 4 h at 37° C. to allow [^3H]-thymidine incorporation. The cells were then washed with medium (2×0.5 mL) and treated with 5% trichloroacetic acid (0.5 mL) for 10 min at room temperature. The trichloroacetic acid was replaced with 0.25 N NaOH (0.5 mL) and the cells were transferred to individual scintillation vials containing Ecolume scintillation cocktail (3.0 mL), mixed well to form homogeneous liquid, and counted in a liquid scintillation analyzer. IC50 values were calculated by plotting %[^3H]-thymidine incorporation versus log concentration of drugs (targeted and non-targeted) using in GraphPad Prism 4.
The IC50 value of the indenoisoquinoline 18 itself was 2.0 nM when determined after a 2 h incubation. […] An increase in potency of 86 relative to 18 was not observed. […] However, the potential value of the conjugate 86 is lack of cytotoxicity in “normal” cells, which would result in 86 being a less toxic anticancer drug.

The nature of data set [2]: Water solubility at room temperature. It is filed as physicochemical.
The next data set deals with PSMA. To be noted: PSMA ligand, literature value; cited from earlier work.
Setting [3] is: Table 1, average of two determinations.

Regarding `NCCCn1c2c(c3ccc(Br)cc3c1=O)C(=O)c1cc3c(cc1-2)OCO3`, the “Top1 inhibitory activity” value on Top1 (Table 2) was “++++”. Besides, the “MGM (μM), cytotoxicity mean-graph midpoint” value (from here on “MGM (μM)”) in data set [1] (Table 2) was determined as 0.329 µM.

Take `NCCCn1c2c(c3ccc([N+](=O)[O-])cc3c1=O)C(=O)c1cc3c(cc1-2)OCO3`: the “Top1 inhibitory activity” value on Top1 (Table 2) is listed as “++++”. For the same compound, the “MGM (μM)” value in data set [1] (Table 2) is 0.090 µM.

As for `COc1ccc2c(c1)C(=O)c1c-2n(CCCN)c(=O)c2cc([N+](=O)[O-])ccc12` [Compound 6], the Top1 inhibitory activity result on Top1 (Table 1) was “++++”. The cytotoxicities entry in the data set with LNCap cell cultures was “low nanomolar range”. Besides, the “MGM (μM)” value in data set [1] (setting [3]) was 0.047 µM.

For `Br.COc1cc2c(cc1O)C(=O)c1c-2n(CCCN)c(=O)c2cc([N+](=O)[O-])ccc12` [Compound 12, 6-(3-Aminopropyl)-9-hydroxy-8-methoxy-3-nitro-5H-indeno[1,2-c]isoquinoline-5,11(6H)-dione hydrobromide], the Top1 inhibitory activity entry at Top1 (Table 1) is “++ (between 50% and 75% activity)”. Besides, the “MGM (μM)” value in data set [1] (setting [3]) amounted to 0.019 µM.

Regarding `Br.COc1cc2c(cc1O)C(=O)c1c-2n(CCCN2CCOCC2)c(=O)c2cc([N+](=O)[O-])ccc12` [Compound 13, 9-Hydroxy-8-methoxy-6-(3-morpholinopropyl)-3-nitro-5H-indeno[1,2-c]isoquinoline-5,11(6H)-dione hydrobromide], the Top1 inhibitory activity entry on Top1 (Table 1) is “++ (between 50% and 75% activity)”. Also, the “MGM (μM)” value in data set [1] (setting [3]) came to 0.021 µM.

Turning to `Br.COc1cc2c(cc1O)C(=O)c1c-2n(CCCn2ccnc2)c(=O)c2cc([N+](=O)[O-])ccc12` [Compound 14, 6-(3-(1H-Imidazol-1-yl)propyl)-9-hydroxy-8-methoxy-3-nitro-5H-indeno[1,2-c]isoquinoline-5,11(6H)-dione hydrobromide], the Top1 inhibitory activity entry at Top1 (Table 1) is “+ (between 20% and 50% activity)”. Moreover, the “MGM (μM)” value in data set [1] (setting [3]) turned out to be 0.019 µM.

For `COc1ccc2c(c1)C(=O)c1c-2n(CCCNCCO)c(=O)c2cc([N+](=O)[O-])ccc12` [Compound 15], the Top1 inhibitory activity result on Top1 (Table 1) is recorded as “++++”. The “MGM (μM)” value in data set [1] (setting [3]) was 0.016 µM.

Take `Cl.NCCCn1c2c(c3ccc([N+](=O)[O-])cc3c1=O)C(=O)c1cc3c(cc1-2)OCO3` [Compound 16, 6-(3-Aminopropyl)-5,6-dihydro-8,9-methylenedioxy-3-nitro-5,11-dioxo-11H-indeno[1,2-c]isoquinoline Hydrochloride]: at Top1 (Table 1), the Top1 inhibitory activity entry is on record as “++++”. Further, the “MGM (μM)” value in data set [1] (setting [3]) was 0.090 µM.

By GI50 is commonly meant the concentration at which growth is held to half of that of the control. The IC50 is the concentration that inhibits the measured activity by half. As for `COc1cc2c(cc1O)C(=O)c1c-2n(CCCN2CCOCC2)c(=O)c2cc(OC)c(OC)cc12` [Compound 18], the Top1 inhibitory activity result at Top1 was “+++++”. Moreover, in the data set on 22RV1 tumors (40 nmol/mouse (2.0 μmol/kg) IP), the “tumor growth during the treatment period” value is “regression of tumor growth”. For the same compound, in the data set on 22RV1 tumors, the “toxicity to the animals” value is “toxic” and the “body weight during the treatment period” value is listed as “retained their normal body weights”. Moreover, in the data set on LNCap cell cultures, the cytotoxicities entry is reported as “low nanomolar range”. The GI50 in data set [1] (Homo sapiens, NCI's panel of 60 cancer cell lines, read-out: cytotoxicity mean-graph midpoint (MGM) GI50 value) was found to be 87 nM. Further, in the data set with 22RV1 cells (Homo sapiens, 2 h incubation, read-out: IC50), the IC50 is 2 nM.

Regarding `COc1ccc2c(c1)C(=O)c1c-2n(CCCNC(=O)OCCSSC[C@H](NC(=O)[C@H](CC(=O)O)NC(=O)[C@@H](N)CNC(=O)[C@H](Cc2ccccc2)NC(=O)[C@H](Cc2ccccc2)NC(=O)CCCCCCCNC(=O)CC[C@H](NC(=O)N[C@@H](CCC(=O)O)C(=O)O)C(=O)O)C(=O)O)c(=O)c2cc([N+](=O)[O-])ccc12` [Compound 84, (12R,15S,18S,22S,25S,39S,43S)-18-Amino-22,25-dibenzyl-15-(carboxymethyl)-1-(9-methoxy-3-nitro-5,11-dioxo-5,11-dihydro-6H-indeno[1,2-c]isoquinolin-6-yl)-5,14,17,21,24,27,36,41-octaoxo-6-oxa-9,10-dithia-4,13,16,20,23,26,35,40,42-nonaazapentatetracontane-12,39,43,45-tetracarboxylic acid], the cytotoxicities result in the data set with LNCap cell cultures is “low nanomolar range”. Further, the solubility in water entry in data set [2] is “dissolve completely and easily”.

As to `COc1cc2c3c(n(CCCN4CCOCC4)c(=O)c2cc1OC)-c1cc(OC)c(OC(=O)OCCSSC[C@H](NC(=O)[C@H](CC(=O)O)NC(=O)[C@@H](N)CNC(=O)[C@H](Cc2ccccc2)NC(=O)[C@H](Cc2ccccc2)NC(=O)CCCCCCCNC(=O)CC[C@H](NC(=O)N[C@@H](CCC(=O)O)C(=O)O)C(=O)O)C(=O)O)cc1C3=O` [Compound 86, (8R,11S,14S,18S,21S,35S,39S)-14-Amino-18,21-dibenzyl-11-(carboxymethyl)-1,10,13,17,20,23,32,37-octaoxo-1-((2,3,8-trimethoxy-6-(3-morpholinopropyl)-5,11-dioxo-6,11-dihydro-5H-indeno[1,2-c]isoquinolin-9-yl)oxy)-2-oxa-5,6-dithia-9,12,16,19,22,31,36,38-octaazahentetracontane-8,35,39,41-tetracarboxylic Acid], the “deaths of animals during the treatment period” value in the data set with 22RV1 tumors (40 nmol/mouse (2.0 μmol/kg) IP, 5 mice per group) is reported as “not lethal; also recorded: no deaths”. Also, the “tumor growth during the treatment period” value with 22RV1 tumors (40 nmol/mouse (2.0 μmol/kg) IP) is listed as “cessation of tumor growth”. Besides, the “toxicity to the animals” value in the data set with 22RV1 tumors is on record as “non-toxic”. Besides, the “antitumor activity in competition group” value in the data set on 22RV1 tumors (86 at 40 nmol/mouse IP plus PSMA competitor 28 in 10-fold excess) is reported as “complete loss of activity”. Moreover, the “body weight during the treatment period” value in the data set on 22RV1 tumors is listed as “retained their normal body weights”. Moreover, the cytotoxicities entry in the data set with LNCap cell cultures was “low nanomolar range”. Further, the solubility in water entry was “dissolved easily” in data set [2]; “dissolve completely and easily” in data set [2] (listed as 30). For the same compound, the IC50 was 11.4 nM in the data set on 22RV1 cells (24-hour incubation, read-out: IC50) and “no activity” in the data set on 22RV1 cells (2 h incubation).

The term Ki denotes a dissociation constant, usually derived from enzyme kinetics or from competition with a known ligand. As to `O=C(O)CCC(NC(=O)NC(CCC(=O)O)C(=O)O)C(=O)O` (stereo not drawn) [DUPA, 2-[3-(1,3-Dicarboxypropyl)-Ureido]Pentanedioic Acid], in the data set on PSMA, the IC50 was 47 nM and the Ki was 8 nM.

In the case of `COc1cc2c3c(n(CCCN4CCOCC4)c(=O)c2cc1OC)-c1cc2c(cc1C3=O)OCO2` [drawing 72], at Top1 (Table 2), the “Top1 inhibitory activity” value is reported as “++++”. In addition, the “MGM (μM)” value in data set [1] (Table 2) was 4.64 µM.

As to `COc1cc2c3c(n(CCCN4CCOCC4)c(=O)c2cc1OC)-c1cc2c(cc1C3=O)OCO2` [drawing 73], the “Top1 inhibitory activity” value on Top1 (Table 2) is on record as “++++”. Also, the “MGM (μM)” value in data set [1] (Table 2) was 0.079 µM.
